Experimental findings from ChEMBL document CHEMBL3217534, “Glyco-Phospho-Glycero Ether Lipids (GPGEL): synthesis and evaluation as small conductance Ca2+-activated K+ channel (SK3) inhibitors” (Medchemcomm, 2012) are described below.

Structures are written as SMILES. In brackets after ≈: the same amount, converted by molar mass. Activity calls are given as the source filed them. The rule behind the calls is not given here.

The subject of data set [1] is HEK-293T. Nature of the data set: Cytotoxicity against HEK293T cells expressing rat SK3 assessed as cell viability at 10 uM after 48 hrs by MTT assay. The data set is classed as cell-based. As to conditions: human.
For data set [2], the system named is HEK-293T. Nature of the data set: Effect on SK3 deficient HEK293T cell migration at 100 nM after 15 hrs by DAPI staining. The data set is classed as functional, cell-based. Conditions: Homo sapiens.
Data set [3] has as its target Small conductance calcium-activated potassium channel protein 3 (Rattus norvegicus) (UniProt P70605). Briefly: Inhibition of recombinant rat SK3 expressed in HEK293T cells assessed as inhibition of cell migration at 100 nM after 15 hrs by DAPI staining. The data set is classed as cell-based. As to conditions: HEK-293T.
Data set [4] has the same target. Briefly: Inhibition of recombinant rat SK3 expressed in HEK293T cells assessed as decrease in channel current amplitude at 0 mV holding potential at 10 uM measured for 3 mins by patch clamp assay relative to control. As to conditions: HEK-293T. The data set is classed as cell-based.
Data set [5] in a line: Solubility of the compound in water. It counts as physicochemical.

Small conductance calcium-activated potassium channel protein 3 (Rattus norvegicus), sequence (P70605 whole entry): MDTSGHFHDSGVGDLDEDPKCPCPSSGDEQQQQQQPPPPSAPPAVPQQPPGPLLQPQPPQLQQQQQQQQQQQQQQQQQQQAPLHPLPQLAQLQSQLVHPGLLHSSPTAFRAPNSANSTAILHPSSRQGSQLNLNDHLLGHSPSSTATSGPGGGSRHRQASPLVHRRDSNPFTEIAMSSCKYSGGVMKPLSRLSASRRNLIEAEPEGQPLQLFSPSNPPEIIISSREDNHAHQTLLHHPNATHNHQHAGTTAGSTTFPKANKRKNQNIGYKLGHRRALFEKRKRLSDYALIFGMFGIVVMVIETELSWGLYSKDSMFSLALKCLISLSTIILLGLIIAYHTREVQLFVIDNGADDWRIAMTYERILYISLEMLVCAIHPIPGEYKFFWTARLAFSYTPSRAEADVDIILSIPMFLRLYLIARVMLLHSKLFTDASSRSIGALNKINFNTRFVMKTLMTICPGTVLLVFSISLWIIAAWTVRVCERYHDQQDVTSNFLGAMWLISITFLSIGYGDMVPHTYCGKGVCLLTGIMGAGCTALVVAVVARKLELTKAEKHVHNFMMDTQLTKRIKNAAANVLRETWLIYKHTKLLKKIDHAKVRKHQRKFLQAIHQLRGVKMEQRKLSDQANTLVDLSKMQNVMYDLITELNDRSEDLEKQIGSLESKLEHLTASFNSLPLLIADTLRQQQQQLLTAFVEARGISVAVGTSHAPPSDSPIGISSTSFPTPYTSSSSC

For the compound `CCCCCCCCCCCCCCCCOCC(CO[C@H]1O[C@H](CO)[C@@H](O[C@@H]2O[C@H](CO)[C@H](O)[C@H](O)[C@H]2O)[C@H](O)[C@H]1O)OC` (some centres not stated), the Activity result in data set [1] is “Non-toxic”. The outcome in data set [2] was inactive. Further, the inhibition in data set [3] was found to be 40%; in data set [4], 73.2%. Moreover, the concentration in solution in data set [5] (solubility) came to 9 µM (≈ 5.89 µg/mL).
The like results for `CCCCCCCCCCCCCCCCOCC(COP(=O)(O)OC1O[C@H](CO)[C@@H](O[C@@H]2O[C@H](CO)[C@H](O)[C@H](O)[C@H]2O)[C@H](O)[C@H]1O)OC.CCN(CC)CC` (some centres not stated) were, in that order, “Non-toxic”, “inactive”, 40%, 69.2% and 16 µM.
Regarding `CCCCCCCCCCCCCCCCOCC(COP(=O)(O)O[C@H]1O[C@H](CO)[C@@H](O[C@H]2O[C@H](CO)[C@@H](O)[C@H](O)[C@H]2O)[C@H](O)[C@H]1O)OC.CCN(CC)CC` (some centres not stated), in data set [1], the Activity entry was “Non-toxic”. Moreover, the result in data set [2] was inactive. Besides, the inhibition in data set [3] amounted to 40%; in data set [4], 70.8%.
For `CCCCCCCCCCCCCCCCOCC(COP(=O)(O)OC1O[C@H](CO)[C@@H](O[C@H]2O[C@H](CO)[C@@H](O)[C@H](O)[C@H]2O)[C@H](O)[C@H]1O)OC.CCN(CC)CC` (some centres not stated), the Activity entry in data set [1] is “Non-toxic”. Further, the outcome in data set [2] was inactive. The inhibition in data set [3] was 40%; in data set [4], 60%.
Turning to `CCCCCCCCCCCCCCCCOCC(COP(=O)(O)OC1O[C@H](CO[C@H]2O[C@H](CO)[C@H](O)[C@H](O)[C@H]2O)[C@@H](O)[C@H](O)[C@H]1O)OC.CCN(CC)CC` (some centres not stated), in data set [1], the Activity result is given as “Non-toxic”. Moreover, the result in data set [2] was inactive. Also, the inhibition in data set [3] stood at 40%; in data set [4] it was 65.5%.
